Test results from patent publication US20030161893A1, “PTPase inhibitors and methods of using the same” (priority 2001, published 2003).

Key:
PTP1B = biological target: T1, PTP1B (Homo sapiens, UniProt P18031); test: In vitro PTPase assay, GST/PTP1B fusion protein; assay type: biochemical; conditions: 0.1 to 1 μg/ml
T1 construct: purchased Upstate Biotechnology Inc. (Lake Placid, N.Y.)
Experimental: In vitro PTPase activities were measured using the commercial protein tyrosine phosphatase assay kit (Upstate Biotechnology, Inc. (“UBI”)) following established procedure known to one of skill in the art. This assay measures the in vitro dephosphorylation of a synthetic phosphotyrosine peptide of the sequence Arg-Arg-Leu-Ile-Glu-Asp-Ala-Gle-Tyr-Ala-Ala-Arg-Gly, wherein the tyrosine is phosphorylated (SEQ ID NO: 3). Briefly, 0.01 μg of GST/PTPase fusion proteins was incubated in 50 μl of Tris buffer (10 mM Tris, pH 7.4) containing different concentrations of inhibitors or chemicals (0-1,000 μg/ml) at 22° C. for 10 minutes, followed by addition of 0.2 mM of the phosphotyrosine peptide and incubation at 22° C. for 18 hours. 100 μl of Malachite Green solution was added and incubated for 5 minutes, and the absorbance at 660 nm was measured after 5 minutes.

Jak2/Stat5 = test: IL-3-induced Jak2/Stat5 tyrosine phosphorylation in Baf3 cells; assay type: cell-based, murine
Experimental: For induction of cellular protein phosphorylation by sodium stibogluconate or pervanadate, Baf3 cells were incubated in 0.1% FCS-RPMI 1640 medium at 37° C. for 16 hours. The cells were then washed twice in RPMI 1640 medium and incubated with sodium stibogluconate or pervanandate (0.1 mM) for various times prior to termination by lysing cells in cold lysis buffer (50 mM Tris, pH 7.4; 150 mM NaCl; 0.2 mM Na3VO4; 20 mm NaF; 1% Nonidet P-40; 2 mM PMSF; 20 μg/ml of Aprotinin and 1 mM of sodium molybdic acid). To determine the effect of sodium stibogluconate or potassium antimonyl tartrate on IL-3-induced Jak/Stat phosphorylation, Baf3 cells were deprived of the growth factor for 16 hours in 0.1% FCS RPMI 1640 medium and then incubated with or without sodium stibogluconate or potassium antimonyl tartrate for 10 minutes. IL-3 was next added to the cell suspension and incubated for various times. The Cells were then harvested and lysed in cold lysis buffer at 4° C. for 45 minutes. Total cell lysates (TCL) were separated in SDS-PAGE gels, blotted onto nitrocellulose membrane (Schleicher & Schuell), probed with specific antibodies and detected using an enhanced chemiluminescence kit (ECL, Amersham, Arlington Heights, Ill.).

Baf3 cells = test: Baf3 cell proliferation assay; assay type: cell-based, murine
Experimental: (§1) The murine hematopoietic cell line Baf3 was maintained in RPMI 1640 medium supplemented with 10% fetal calf serum (FCS) and murine IL-3 (20 units/ml) as described previously in Damen et al., J. Biol. Chem. 270, 23402 (1995). Human myeloid cell line TF-1 was maintained in RPMI 1640 supplemented with 10% FCS and 40 ng/ml of recombinant human GM-CSF as described previously in Thomassen et al., Clin. Immunol. 95, 85 (2000). For cell proliferation assays, cells were washed in 10% FCS medium twice, resuspended in 10% FCS medium, incubated at 37° C. for 16 hours, and then cultured at 37° C. in 10% FCS medium containing various amounts of cytokines, sodium stibogluconate, or potassium antimonyl tartrate for 3-6 days as indicated. The cell numbers in proliferation assays were determined by an MTT assay or by microscopic cell counting as indicated.

TF-1 cells = test: TF-1 cell proliferation assay; assay type: cell-based, human
Experimental: as §1

Tyk2/Stat3 = test: GM-CSF-induced Tyk2/Stat3 tyrosine phosphorylation in SHP-1-deficient cells; assay type: cell-based
Stat1 = test: IFN-alpha-induced Stat1 tyrosine phosphorylation, WM35 cells; assay type: cell-based, human
Experimental: For induction of Stat1 tyrosine phosphorylation by IFN-alpha in the absence or presence of sodium stibogluconate, cells grown in 10% FCS RPMI 1640 medium at 37° C. were stimulated with IFN-alpha (50 u/ml) for various time points and treated with or without sodium stibogluconate for 5 minutes prior to termination by lysing the cells in cold lysis buffer (1% NP-40; 50 mM Tris, pH 7.4; 100 mM NaCl; 1 mM EDTA, 10% glycerol, 10 mM sodium molybdic acid and 4 mM AEBSF).
Cell lysates were prepared by lysing cells in cold lysis buffer for 30 min and cleared by centrifuging at 14,000 rpm at 4° C. for 15 min. For SDS-PAGE, cell lysates were mixed with equal volume of 2×SDS-PAGE sample buffer, heated at 90° C. for 5 min and separated in 10% SDS-PAGE gels. Cellular proteins in SDS-PAGE gels were transferred to nitrocellulose membrane (Schleicher & Schuell, Keene, N.H.), blocked in 5% milk, probed with antibodies and detected by using an enhanced chemiluminescence kit (ECL, Amersham, Arlington Heights, Ill.).

[1] = cited from earlier work

T1 sequence (P18031 whole entry, species assumed, the tested form may be a part): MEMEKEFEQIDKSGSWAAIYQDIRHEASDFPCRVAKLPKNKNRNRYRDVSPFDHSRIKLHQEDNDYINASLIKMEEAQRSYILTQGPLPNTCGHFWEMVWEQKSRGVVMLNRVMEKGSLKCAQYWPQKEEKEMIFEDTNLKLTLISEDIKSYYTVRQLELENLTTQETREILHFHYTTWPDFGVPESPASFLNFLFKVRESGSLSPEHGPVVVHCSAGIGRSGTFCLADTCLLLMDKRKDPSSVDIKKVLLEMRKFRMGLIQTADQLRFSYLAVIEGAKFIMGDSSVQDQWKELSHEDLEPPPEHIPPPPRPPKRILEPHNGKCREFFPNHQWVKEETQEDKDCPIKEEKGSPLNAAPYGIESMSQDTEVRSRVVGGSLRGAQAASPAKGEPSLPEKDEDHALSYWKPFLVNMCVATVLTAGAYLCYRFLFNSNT

O.O.O.O.O.O.O.O.O.O=C([O-])[C@@H]1[O][Sb]2([O-])([O][Sb]34([OH])[O][C@H]([C@H](O)CO)[C@H]([O]3)[C@H](C(=O)[O-])[O]4)[O][C@H]([C@H](O)CO)[C@@H]1[O]2.[Na+].[Na+].[Na+] [sodium stibogluconate]
inhibition of PTP1B activity (PTP1B): only modestly effective
phosphotyrosine levels of Jak2 and Stat5 versus cells without drug (Jak2/Stat5; IL-3 stimulated, densitometry): about twice
Jak2/Stat5 tyrosine phosphorylation by drug alone (Jak2/Stat5; no IL-3, 37° C. for 16 hours): failed to induce Jak2/Stat5 tyrosine phosphorylation
IL-3-induced Baf3 growth at high concentration (Baf3 cells; 1,000 μg/ml): suppressed IL-3-induced Baf3 growth
Baf3 proliferation/viability in the absence of IL-3 (Baf3 cells; day 3 culture): failed to support cell proliferation or maintain cell viability
GM-CSF-induced proliferation of TF-1 cells (TF-1 cells; 50 μg/ml, GM-CSF 5-40 ng/ml): augmented
growth inhibition activity of IFN-alpha in TF-1 cells in presence of drug (TF-1 cells; 50 μg/ml, with GM-CSF): enhanced
effect of low doses on GM-CSF-induced TF-1 growth (TF-1 cells; 12.5-50 μg/ml): no negative effect on GM-CSF-induced cell growth
GM-CSF-induced Tyk2/Stat3 tyrosine phosphorylation (Tyk2/Stat3): augmented
IFN-alpha-induced Stat1 tyrosine phosphorylation (Stat1): failed to enhance
serum levels at standard dosage for leishmaniasis treatment ([1]; 10-20 mg/kg/day): ≥ 10000 ng/mL
clinical side effects at higher dosages ([1]; human, in vivo): reversible nonspecific ECG changes and renal defects
clinical tolerability at therapeutic dosages ([1]; human, in vivo): well tolerated
